Assay results taken from US8158589B2, “Peptides with the capacity to bind to transforming growth factor β1 (TGF-β1)” (Proyecto Biomedicine Cima, S.L., priority 2003, dated 2012).
Ends that are not written are not given here.

Tests used:
TGF-β1 [1] = biological target: T1, TGF-β1 (Mus musculus, UniProt P04202); assay: Bleomycin-induced pulmonary fibrosis, preventive treatment started two days after bleomycin; assay type: in vivo, mice
T1 construct: from tissue; host or cells: liver of Balb/C mice (CCl4 model); lung of C57BL/6 mice (bleomycin model)
T1 sequence (P04202 279-390 limits assumed): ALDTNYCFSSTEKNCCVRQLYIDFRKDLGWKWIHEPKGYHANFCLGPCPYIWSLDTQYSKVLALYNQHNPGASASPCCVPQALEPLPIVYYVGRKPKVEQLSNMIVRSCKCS
Experimental: Female C57BL/6 mice (6-8 weeks of age) were obtained from Harlan SL (Barcelona, Spain) and maintained in accordance with the ethical committee of Universidad de Navarra (Spain) for the experimental use of animals. Lung injury was induced with 0.08 units/mouse of bleomycin sulfate (Sigma, Spain) diluted in 200 μl of phosphate buffered saline (PBS). Briefly, the suspension of bleomycin was instilled by pippeting into the nose of mice previously anesthetized with 2% isoflurane vapor. PBS was instilled in mice as a negative control for pulmonary fibrosis (PF), following the same procedures. Peptide treatment was started two days after bleomycin challenge and it was administered intraperitoneally in 500 μl of PBS on alternate days. Mice received high (75 μg/mouse) or low (25 μg/mouse) doses of P17, or the high dose (75 μg/mouse) of control peptide P301. […] To study the therapeutic effect of P17 in the development of fibrosis, it was administered daily ten days after bleomycin challenge, once fibrosis was established. Twenty six days after bleomycin instillation, mice were sacrificed and lung samples were fixed in order to evaluate histological damage.
Total RNA was purified from IMR-90 fibroblasts and whole lung samples using Ultraspec RNA (Biotecx; Houston, Tex.) according to the manufacturer's instructions. First, 1 μg of RNA was incubated with Dnase I (2 U/μl) (Gibco-BRL) for 30 min at 37° C. Then, samples were reverse-transcribed with the M-MLV Reverse transcriptase (Gibco-BRL) in the presence of RNaseOUT (Gibco-BRL) with ramdon hexamers and poly (dT) oligos according to the manufacturer's protocol. Expression of human Connective Tissue Growth Factor (CTGF) mRNA induced by TGF-β1 in IMR-90 fibroblasts was measured by real time RT-PCR using an ICycler and IQ SYBR Supermix (Bio-Rad, Italy). Actin was used as endogenous reference housekeeping gene. For in vivo analysis, expression of murine Fibronectin (FN), extra domain A of Fibronectin (EDA-FN), Collagen type I and Interferon gamma (IFN-γ) was measured in lungs, using Histone 3 as internal control. The amount of each transcript was expressed by the formula: 2^ΔCt (ΔCt=Ct(control gene)−Ct(gene)), wherein Ct is the threshold cycle number at which an increase in the signal associated with exponential growth of PCR products begins to be detected using Bio-Rad analysis software.
Lungs were fixed by inflation with 4% paraformaldehyde overnight and dehydrated in 70% ethanol. Tissue was embedded in paraffin wax, 3 μm thick sections were prepared and stained with Masson's trichrome to measure collagen deposition. Percentage of fibrosis in the lung was evaluated by light microscopy by three different qualified persons using a blinded system.
Dewaxed and rehydrated lung tissue sections were subjected to endogenous peroxidase inactivation with a blocking reagent (DakoCytomation, Denmark) for 10 min. They were then incubated for two hours with a 1/50 dilution in PBS of mouse anti-human α-SMA monoclonal antibody (DakoCytomation) that cross-reacts with mouse α-SMA. Next, sections were incubated for 1 hour with a peroxidase-labeled polyclonal rabbit anti-mouse immunoglobulin (DakoCytomation). Peroxidase activity was visualized using DAB+ Chromogen (DakoCytomation) as substrate and sections were counterstained with Harris hematoxylin. Expression of αSMA was evaluated by light microscopy and expressed as percentage of α-SMA positive area.
Lymphocyte infiltrate in the lungs was also determined by immunohistochemical analysis. In this case, lung sections were incubated with a mouse anti-human αCD3 monoclonal antibody that cross-reacts with mouse CD3 (NeoMarkers, CA) and then with an anti-mouse immunoglobulin coupled with peroxidase (DakoCytomation). CD3-positive cells were counted in a whole lobe (about 20 fields).

TGF-β1 [2] = biological target: TGF-β1 (Homo sapiens, UniProt P01137); assay: Immunofluorescence of p-Smad2 translocation to the nucleus in rabbit corneal fibroblasts; assay type: cell-based; set-up: host or cells: added to a primary culture of rabbit corneal fibroblasts; conditions: TGF-β1 treated rabbit corneal fibroblasts
TGF-β1 (Homo sapiens, UniProt P01137), sequence (P01137 279-390 limits assumed, species assumed): as the sequence (P04202 279-390 limits assumed) above, with S75A counted along it
Experimental: Therefore, Western Blot and immunofluorescence studies were conducted to determine, from cells extracted from the in vivo studies, the signaling pathway used by the peptides administered topically. It should be emphasized that said studies were conducted on fibroblasts from rabbit cornea and not from rat cornea. This decision was made due to the difficulty entailed in isolating fibroblasts from rodent eyes.

[3] = 75 μg/mouse, 14 days after bleomycin instillation, RT-PCR

Sequence: KRIWFIPRSSWYERA [SEQ ID NO: 17, KRIWFIPRSSWYERA]
- lung fibrosis (Masson's Trichrome) (TGF-β1 [1]; 25 μg/mouse intraperitoneally on alternate days from day 2, day 26): No beneficial effect
- lung fibrosis (Masson's Trichrome) (TGF-β1 [1]; 75 μg/mouse intraperitoneally on alternate days from day 2, day 26, vs control peptide): significant decrease of fibrosis
- collagen type I mRNA in lungs (TGF-β1 [1]; [3]): significant reduction
- fibronectin mRNA in lungs (TGF-β1 [1]; [3]): significantly downregulated
- EDA-FN mRNA in lungs (TGF-β1 [1]; 75 μg/mouse, 14 days after bleomycin instillation, vs control peptide): lower expression levels
- IFN-γ mRNA expression in lungs (TGF-β1 [1]; 75 μg/mouse, RT-PCR): upregulated
- T lymphocytes (CD3+ cells) in lung sections (TGF-β1 [1]; 75 μg/mouse, vs bleomycin mice with or without P301): significant reduction
- IL-10 or IL-4 mRNA expression in lungs (TGF-β1 [1]; P17 vs P301 control peptide, RT-PCR, data not shown): did not show any significant difference
- areas of myofibroblasts (α-SMA expression) in lungs (TGF-β1 [1]; high dose 75 μg/mouse, immunohistochemistry): fewer areas of myofibroblasts
- translocation of p-Smad2 to the nucleus (TGF-β1 [2]): did not inhibit
